In brackets after ≈: the same amount, converted by molar mass. Read-outs that look alike come from different tables or passages of the source. Marks after values point to notes of the source that are not given here.
Key:
Staphylococcus aureus = assay: MIC, broth microdilution (CLSI M07-A9); assay type: cell-based
[1] = tested on: Staphylococcus aureus (MRSA and MSSA strains); assay: Time kill assay, single agents at 1×MIC (CLSI); assay type: cell-based; details: for kill within 6 hours: 1×MIC
[2] = tested on: Staphylococcus aureus (MRSA and MSSA strains); assay: Synergy time-kill assay (6 hours, combination compared to most active single agent); assay type: cell-based; details: ½ MIC PlySs2 or ¼ MIC vancomycin alone, up to 6 hours
S. aureus [3] = assay: Cell envelope binding of BODIPY-fluorescein-labeled antibiotics; assay type: cell-based
Method: As a complement to the synergy studies, daptomycin and vancomycin cell envelope-binding was examined using BODIPY-fluorescein-labeled antibiotics in the presence and absence of sub-MIC levels of CF-301. […] Similarly, cell wall-labeling with vancomycin occurs within 5 minutes in the presence of CF-301 (⅛^th MIC) versus 30 minutes without CF-301 (FIG. 20B). For both antibiotics, the labeling was first observed at bacterial division planes.

S. aureus [4] = assay: Murine bacteremia model, survival; assay type: in vivo, BALB/c mice; details: high challenge (10^9 CFU MRSA MW2), dosing at 2 hours; vancomycin 110 mg/kg twice daily, PlySs2 5.25 mg/kg (FIG. 27E)
[5] = tested on: MRSA Staphylococcus aureus strain (MW2); assay: microbe, parasite or virus in culture; assay type: cell-based; details: for MIC: Staphylococcus aureus, MRSA, 600 h
[6] = DRSA (n = 8), with reducing agent

Cc1onc(-c2ccccc2)c1C(=O)N[C@@H]1C(=O)N2[C@@H]1SC(C)(C)[C@@H]2C(=O)O [Oxacillin, oxacillin]
MIC50/90 (Staphylococcus aureus; MRSA (n = 45)): >4*
MIC50/90 [uM] (Staphylococcus aureus; MRSA (n = 45)): >10.0 µM
kill within 6 hours [1]: 2 log10
relative effectiveness among antibiotic agents ([1]; MSSA strains): least effective

CN[C@H](CC(C)C)C(=O)N[C@H]1C(=O)N[C@@H](CC(N)=O)C(=O)N[C@H]2C(=O)N[C@H]3C(=O)N[C@H](C(=O)N[C@H](C(=O)O)c4cc(O)cc(O)c4-c4cc3ccc4O)[C@H](O)c3ccc(c(Cl)c3)Oc3cc2cc(c3O[C@@H]2O[C@H](CO)[C@@H](O)[C@H](O)[C@H]2O[C@H]2C[C@](C)(N)[C@H](O)[C@H](C)O2)Oc2ccc(cc2Cl)[C@H]1O [Vancomycin, vancomycin]
MIC90 (Staphylococcus aureus; [6]): 1
MIC90 [uM] (Staphylococcus aureus; [6]): 0.7 µM (≈ 1.01 µg/mL)
MIC90 (Staphylococcus aureus; LRSA (n = 5), with reducing agent): 1
MIC90 (Staphylococcus aureus; MRSA (n = 45), with reducing agent): 1
MIC90 (Staphylococcus aureus; MSSA (n-28), with reducing agent): 1
MIC90 (Staphylococcus aureus; Staphylococcus aureus): 0.7 µM (≈ 1.01 µg/mL)
MIC90 (Staphylococcus aureus; Staphylococcus aureus, MRSA): 0.7 µM (≈ 1.01 µg/mL)
MIC90 (Staphylococcus aureus; Staphylococcus aureus, MSSA): 0.7 µM (≈ 1.01 µg/mL)
MIC90 (Staphylococcus aureus; Staphylococcus aureus, VISA): 2.7 µM (≈ 3.91 µg/mL)
MIC90 (Staphylococcus aureus; Staphylococcus aureus, VRSA): > 10.6 µM
MIC90 (Staphylococcus aureus; VISA (n = 10), with reducing agent): 4
MIC90 (Staphylococcus aureus; VRSA (n = 14), with reducing agent): >16
kill within 6 hours [1]: 2 log10
effectiveness alone at sub-MIC doses [2]: ineffective or poorly effective
time to cell wall-labeling with vancomycin (S. aureus [3]; in the presence of CF-301 (⅛^th MIC)): ≤ 5 min
time to cell wall-labeling with vancomycin (S. aureus [3]; without CF-301): 30 min
24 hour survival rate (S. aureus [4]): 20%
72 hour survival rate (S. aureus [4]): 3%
MIC ([5]; read-out: vancomycin MIC, ending values, passaged with PlySs2 (8 ug/ml) plus vancomycin, 25 day): 4 µg/mL
MIC ([5]; read-out: vancomycin MIC, ending values, three vancomycin-only cultures, 25-day study): 16 µg/mL (≈ 11 µM)
antibiotic MIC, starting value ([5]; before serial passage): 1 µg/mL
increase of vancomycin MIC ([5]; passaged with PlySs2 (8 ug/ml) plus vancomycin): 2 to 4 fold
vancomycin MIC, ending values ([5]; passaged with PlySs2 (8 ug/ml) plus vancomycin, 25 day): 2 µg/mL
increase of vancomycin MIC ([5]; vancomycin-only cultures, 25-day study): 16 fold
